Measured values taken from PubChem BioAssay (NCI).
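Cells were grown in 96-well plates and exposed to each compound for 48 hours at five concentrations; endpoints were interpolated linearly between bracketing concentrations, or set to the highest concentration if not reached. The concentration for 50% growth inhibition is given as GI50. TGI marks complete inhibition of growth.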

Columns and labels:
Assay in all cases: NCI tumour cell line growth inhibition, 48 h
[1] = test system: 786-0 renal
[2] = test system: A498 renal
[3] = test system: A549 NSCLC
[4] = test system: ACHN renal
[5] = test system: BT-549 breast
[6] = test system: CAKI-1 renal
[7] = test system: CCRF-CEM leukemia
[8] = test system: COLO 205 colon
[9] = test system: DU-145 prostate
[10] = test system: EKVX NSCLC
[11] = test system: HCC-2998 colon
[12] = test system: HCT-116 colon
[13] = test system: HCT-15 colon
[14] = test system: HL-60(TB) leukemia
[15] = test system: HOP-62 NSCLC
[16] = test system: HOP-92 NSCLC
[17] = test system: HS 578T breast
[18] = test system: HT29 colon
[19] = test system: IGROV1 ovarian
[20] = test system: K-562 leukemia
[21] = test system: KM12 colon
[22] = test system: LOX IMVI melanoma
[23] = test system: M14 melanoma
[24] = test system: MALME-3M melanoma
[25] = test system: MCF7 breast
[26] = test system: MDA-MB-231 breast
[27] = test system: MDA-MB-435
[28] = test system: MOLT-4 leukemia
[29] = test system: NCI-H226 lung
[30] = test system: NCI-H23 lung
[31] = test system: NCI-H460 lung
[32] = test system: NCI/ADR-RES ovarian
[33] = test system: OVCAR-3 ovarian
[34] = test system: OVCAR-4 ovarian
[35] = test system: OVCAR-5 ovarian
[36] = test system: OVCAR-8 ovarian
[37] = test system: PC-3 prostate
[38] = test system: RPMI-8226 leukemia
[39] = test system: RXF 393 renal
[40] = test system: SF-268 CNS
[41] = test system: SF-295 CNS
[42] = test system: SF-539 CNS
[43] = test system: SK-MEL-2 melanoma
[44] = test system: SK-MEL-28 melanoma
[45] = test system: SK-MEL-5 melanoma
[46] = test system: SK-OV-3 ovarian
[47] = test system: SN12C renal
[48] = test system: SNB-19 CNS
[49] = test system: SNB-75 CNS
[50] = test system: SR leukemia
[51] = test system: SW-620 colon
[52] = test system: T-47D breast
[53] = test system: TK-10 renal
[54] = test system: U251 CNS
[55] = test system: UACC-257 melanoma
[56] = test system: UACC-62 melanoma
[57] = test system: UO-31 renal

CC(C)(C)c1ccc(C(=O)Nc2sc3c(c2C(N)=O)CCC(O)C3)cc1 (centres undefined)
GI50 [1]: 1.98 µM
TGI [1]: 6.35 µM
GI50 [2]: 1.46 µM
TGI [2]: 4.79 µM
GI50 [3]: 2.23 µM
TGI [3]: 33 µM
GI50 [4]: 0.321 µM
TGI [4]: 13.2 µM
GI50 [5]: 3.13 µM
TGI [5]: 14.2 µM
GI50 [6]: 0.109 µM
TGI [6]: 3.61 µM
GI50 [7]: 2.01 µM
TGI [7]: 10.6 µM
GI50 [8]: 0.377 µM
TGI [8]: 1.72 µM
GI50 [9]: 2.7 µM
TGI [9]: 17.4 µM
GI50 [10]: 3.52 µM
TGI [10]: 18.5 µM
GI50 [11]: 1.05 µM
TGI [11]: 6.78 µM
GI50 [12]: 1.14 µM
TGI [12]: 11.5 µM
GI50 [13]: 0.729 µM
TGI [13]: 10.4 µM
GI50 [14]: 1.77 µM
TGI [14]: 15 µM
GI50 [15]: 1.42 µM
TGI [15]: 8.65 µM
GI50 [16]: 2.74 µM
TGI [16]: 16.5 µM
GI50 [17]: 4.18 µM
TGI [17]: 35.1 µM
GI50 [18]: 0.569 µM
TGI [18]: 3.23 µM
GI50 [19]: 3.24 µM
TGI [19]: 18.5 µM
GI50 [20]: 0.0507 µM
TGI [20]: 1.22 µM
GI50 [21]: 0.365 µM
TGI [21]: 3.15 µM
GI50 [22]: 0.228 µM
TGI [22]: 1.75 µM
GI50 [23]: 0.995 µM
TGI [23]: 4.71 µM
GI50 [24]: 4.16 µM
TGI [24]: 17 µM
GI50 [25]: 0.753 µM
TGI [25]: 10.5 µM
GI50 [26]: 2.17 µM
TGI [26]: 5.32 µM
GI50 [27]: 0.422 µM
TGI [27]: 15.6 µM
GI50 [28]: 1.65 µM
TGI [28]: 11.5 µM
GI50 [29]: 2.96 µM
TGI [29]: 27 µM
GI50 [30]: 4.16 µM
TGI [30]: 22.8 µM
GI50 [31]: 0.493 µM
TGI [31]: 10.6 µM
GI50 [32]: 2.33 µM
TGI [32]: 31.7 µM
GI50 [33]: 3.11 µM
TGI [33]: 13.3 µM
GI50 [34]: 0.747 µM
TGI [34]: 17.1 µM
GI50 [35]: 3.14 µM
TGI [35]: 17.4 µM
GI50 [36]: 2.64 µM
TGI [36]: 87.4 µM
GI50 [37]: 2.77 µM
TGI [37]: 16.4 µM
GI50 [38]: 2 µM
TGI [38]: 5.42 µM
GI50 [39]: 1.77 µM
TGI [39]: 4.93 µM
GI50 [40]: 4.39 µM
TGI [40]: 17.9 µM
GI50 [41]: 0.582 µM
TGI [41]: 2.54 µM
GI50 [42]: 1.39 µM
TGI [42]: 7.19 µM
GI50 [43]: 4.46 µM
TGI [43]: 19 µM
GI50 [44]: 2.95 µM
TGI [44]: 15.1 µM
GI50 [45]: 0.908 µM
TGI [45]: 3.7 µM
GI50 [46]: 3.44 µM
TGI [46]: 19.2 µM
GI50 [47]: 6.33 µM
TGI [47]: 22.2 µM
GI50 [48]: 8.94 µM
TGI [48]: 21.2 µM
GI50 [49]: 3.18 µM
TGI [49]: 15.1 µM
GI50 [50]: 0.312 µM
TGI [50]: 4.87 µM
GI50 [51]: 0.597 µM
TGI [51]: 11 µM
GI50 [52]: 0.625 µM
TGI [52]: 14.8 µM
GI50 [53]: 4.37 µM
TGI [53]: 18.4 µM
GI50 [54]: 3.95 µM
TGI [54]: 19.6 µM
GI50 [55]: 1.27 µM
TGI [55]: 10.1 µM
GI50 [56]: 0.333 µM
TGI [56]: 19.9 µM
GI50 [57]: 2.03 µM
TGI [57]: 12.8 µM
